The values that follow come from ChEMBL document CHEMBL3351696, “Design of chemically stable, potent, and efficacious MDM2 inhibitors that exploit the retro-mannich ring-opening-cyclization reaction mechanism in spiro-oxindoles” (J Med Chem, 2014).

Series [1] has as its system SJSA-1. As to the kind of experiment: cells. The conditions noted are these: Homo sapiens.
Series [2] can be described thus: physchem. The conditions noted are these: 1:1 CH3CN/H2O.
Series [3] can be described thus: physchem. The conditions noted are these: 1:1 CH3CN/H2O. This is another data set of the same source.
A short description of series [4]: physchem. The note with it: 1:1 CH3CN/H2O. The source holds these as a separate data set.
Series [5] in a line: physchem. The note with it: 1:1 CH3CN/H2O. The source holds these as a separate data set.
Series [6] is described as follows: cells. The conditions noted are these: Homo sapiens, HCT-116.
The nature of series [7]: cells. The note with it: Homo sapiens, HCT-116. The source holds these as a separate data set.
Series [8] is described as follows: physchem. The conditions noted are these: 1:1 CH3CN/H2O solution.
Series [9] can be described thus: physchem. The note with it: 1:1 MeOH/H2O solution.
Series [10] concerns SJSA-1. The conditions noted are these: Homo sapiens, 200 mg/kg.

SMILES strings stand for the structures. The source made the active and inactive calls. No cut-off for these calls is given here.

Turning to `CCC1(CC)N[C@@H](C(=O)NCCN2CCOCC2)[C@H](c2cccc(Cl)c2F)[C@]12C(=O)Nc1cc(Cl)ccc12`, the IC50 in the series with SJSA-1 [1] was more than 10000 nM.
`C[C@]1(O)C[C@@H](NC(=O)[C@@H]2NC3(CCCCC3)[C@@]3(C(=O)Nc4cc(Cl)ccc43)[C@H]2c2cccc(Cl)c2F)C1` gave a fraction remaining at 24 h in the series “physchem [2]” of 100%. In “physchem [3]”, this compound returned a fraction remaining at 144 h of 100%. In addition, in “physchem [4]”, the share remaining at 72 h worked out at 100%. Further, the amount remaining at 0 h in “physchem [5]” stood at 100%. In the series with SJSA-1 [1], this compound had an IC50 of 160 nM.
For `CCCC1(CCC)N[C@@H](C(=O)N[C@H]2CC[C@H](O)CC2)[C@H](c2cccc(Cl)c2F)[C@]12C(=O)Nc1cc(Cl)ccc12`, 6900 nM corresponded to half-maximal inhibition with SJSA-1 [1] (IC50). This lies in the single-digit micromolar range.
As for `CC(C)(C)C[C@@H]1N[C@@H](C(=O)NCCN2CCOCC2)[C@H](c2cccc(Cl)c2F)[C@]12C(=O)Nc1cc(Cl)ccc12`, the share remaining at 24 h in “physchem [2]” is 90.8%. The fraction remaining at 144 h in “physchem [3]” is 82.7%. Moreover, in the series “physchem [4]”, the amount remaining at 72 h worked out at 86.9%. This compound yielded an amount remaining at 0 h in “physchem [5]” of 98.1%.
On to `O=C(N[C@H]1CC[C@H](O)CC1)[C@@H]1NC2(CCC2)[C@@]2(C(=O)Nc3cc(Cl)ccc32)[C@H]1c1cccc(Cl)c1F`, for which, in the series with SJSA-1 [1], inhibition was half-maximal at 1600 nM (IC50).
As for `O=C(N[C@H]1CC[C@H](O)CC1)[C@@H]1NC2(CCCC2)[C@@]2(C(=O)Nc3cc(Cl)ccc32)[C@H]1c1cccc(Cl)c1F`, in the series on SJSA-1 [1], the IC50 was found to be 650 nM. This IC50 lies about 2.5-fold lower than the previous one.
For `CCC1(CC)N[C@@H](C(=O)N[C@H]2CC[C@H](O)CC2)[C@H](c2cccc(Cl)c2F)[C@]12C(=O)Nc1cc(Cl)ccc12`, the IC50 with SJSA-1 [1] was 5400 nM.
Same read-out and setting: next, `O=C(NCCN1CCOCC1)[C@@H]1NC2(CCC2)[C@@]2(C(=O)Nc3cc(Cl)ccc32)[C@H]1c1cccc(Cl)c1F`: 2300 nM; `O=C(NCC[C@H](O)CO)[C@@H]1NC2(CCC2)[C@@]2(C(=O)Nc3cc(Cl)ccc32)[C@H]1c1cccc(Cl)c1F`: 2080 nM; `CCC1(CC)N[C@@H](C(=O)N[C@H]2C[C@@](C)(O)C2)[C@H](c2cccc(Cl)c2F)[C@]12C(=O)Nc1cc(Cl)ccc12`: more than 10000 nM.
Take `CCC1(CC)N[C@@H](C(=O)NCC[C@H](O)CO)[C@H](c2cccc(Cl)c2F)[C@]12C(=O)Nc1cc(Cl)ccc12`: the IC50 in the series on SJSA-1 [1] is more than 10000 nM.
Consider `O=C(N[C@H]1CC[C@H](O)CC1)[C@@H]1NC2(CCC2)[C@]2(C(=O)Nc3cc(Cl)ccc32)[C@H]1c1cccc(Cl)c1F`, for which, in the series with SJSA-1 [1], the concentration for half-maximal inhibition (IC50) was found to be 2000 nM.
`O=C(O)c1ccc(NC(=O)[C@@H]2NC3(CCCCC3)[C@@]3(C(=O)Nc4cc(Cl)ccc43)[C@H]2c2cccc(Cl)c2F)cc1`: the values for the IC50 in “cells [6]”, in “cells [7]” and in the series on SJSA-1 [1] were 250 nM, more than 10000 nM and 100 nM, respectively.
Turning to `O=C(N[C@H]1CC[C@H](O)CC1)[C@@H]1NC2(CCCCCC2)[C@@]2(C(=O)Nc3cc(Cl)ccc32)[C@H]1c1cccc(Cl)c1F`, the IC50 in the series with SJSA-1 [1] came out at 2100 nM.
With `C[C@]1(O)C[C@@H](NC(=O)[C@@H]2NC3(CCC3)[C@@]3(C(=O)Nc4cc(Cl)ccc43)[C@H]2c2cccc(Cl)c2F)C1`, half-maximal inhibition in the series with SJSA-1 [1] (IC50) required 1680 nM.
Regarding `C[C@]1(O)C[C@@H](NC(=O)[C@@H]2NC3(CCC3)[C@]3(C(=O)Nc4cc(Cl)ccc43)[C@H]2c2cccc(Cl)c2F)C1`, in the series with SJSA-1 [1], the IC50 worked out at 1460 nM.
As to `CC1(C)N[C@@H](C(=O)N[C@H]2CC[C@H](O)CC2)[C@H](c2cccc(Cl)c2F)[C@]12C(=O)Nc1cc(Cl)ccc12`, the half-inhibitory concentration (IC50) in the series with SJSA-1 [1] came to 2900 nM. Against the preceding compound, the IC50 is about 2-fold higher.
Regarding `CC(C)(C)C[C@@H]1N[C@@H](C(=O)NCC[C@H](O)CO)[C@H](c2cccc(Cl)c2F)[C@]12C(=O)Nc1cc(Cl)ccc12`, in the series “physchem [2]”, the fraction remaining at 24 h was 95.8%. In “physchem [3]”, this compound came in with a share remaining at 144 h of 91.4%. In the series “physchem [4]”, this compound displayed a share remaining at 72 h of 95.7%. The compound also had a fraction remaining at 0 h in “physchem [5]” of 97.5%.
For the compound `CC(C)(C)C[C@@H]1N[C@@H](C(=O)N[C@H]2C[C@@](C)(O)C2)[C@H](c2cccc(Cl)c2F)[C@]12C(=O)Nc1cc(Cl)ccc12`, the share remaining at 24 h in the series “physchem [2]” came out at 99.6%. The amount remaining at 144 h in “physchem [3]” turned out to be 97.7%. Moreover, the degraded at 168 h in “physchem [8]” and in the series “physchem [9]” was 2% each time. In the series “physchem [4]”, this compound showed an amount remaining at 72 h of 98.6%. For the same compound, in “physchem [5]”, the share remaining at 0 h was 100%.
The compound `O=C(NCCN1CCOCC1)[C@@H]1NC2(CCCCC2)[C@@]2(C(=O)Nc3cc(Cl)ccc32)[C@H]1c1cccc(Cl)c1F` showed a share remaining at 24 h in the series “physchem [2]” of 100%. The fraction remaining at 144 h in “physchem [3]” was 99.2%. For the same compound, the share remaining at 72 h in “physchem [4]” amounted to 99.6%. Moreover, in the series “physchem [5]”, the amount remaining at 0 h came out at 100%. The same compound displayed an IC50 with SJSA-1 [1] of 300 nM.
Take `O=C(NCC[C@H](O)CO)[C@@H]1NC2(CCC2)[C@]2(C(=O)Nc3cc(Cl)ccc32)[C@H]1c1cccc(Cl)c1F`: in the series with SJSA-1 [1], inhibition was half-maximal at 1670 nM (IC50).
With `O=C(N[C@H]1CC[C@H](O)CC1)[C@@H]1NC2(CCCCC2)[C@@]2(C(=O)Nc3cc(Cl)ccc32)[C@H]1c1cccc(Cl)c1F`, the results for the IC50 in “cells [6]”, in “cells [7]” and in the series on SJSA-1 [1] were 320 nM, more than 10000 nM and 190 nM, respectively. Besides, the TGI result with SJSA-1 [10] was “Active”.
The compound `O=C(NCC[C@H](O)CO)[C@@H]1NC2(CCCCC2)[C@@]2(C(=O)Nc3cc(Cl)ccc32)[C@H]1c1cccc(Cl)c1F` showed an amount remaining at 24 h in “physchem [2]” of 100%. The compound also registered a fraction remaining at 144 h in “physchem [3]” of 100%. Moreover, in the series “physchem [4]”, the share remaining at 72 h was 100%. The same compound gave a fraction remaining at 0 h in “physchem [5]” of 100%. In the series with SJSA-1 [1], this compound gave an IC50 of 200 nM.
Turning to `O=C(NCCN1CCOCC1)[C@@H]1NC2(CCC2)[C@]2(C(=O)Nc3cc(Cl)ccc32)[C@H]1c1cccc(Cl)c1F`, the half-maximal inhibitory concentration (IC50) with SJSA-1 [1] came out at 1650 nM.
